Reference: patent US8338441B2, “Inhibitors of human immunodeficiency virus replication” (priority 2009, dated 2012)
pEC50: −log10 of the molar value.

These compounds were tested on HIV-1 NL4.3 strain (assay: C8166 HIV-1 Luciferase Assay (EC50)). Settings: Human immunodeficiency virus 1, C8166, 72 h, read-out: Antiviral potency EC50.
Assay type: cell-based
From the text: C8166 HIV-1 Luciferase Assay (EC50)
C8166 cells are derived from a human T-lymphotrophic virus type 1 immortalized but nonexpressing line of cord blood lymphocytes (obtained from J. Sullivan and originally produced in the laboratory of R. Gallo, Virology 1983; 129: 51-64) and are highly permissive to HIV-1 infection. The pGL3 Basic LTR/TAR plasmid is made by introducing the HIV-1 HxB2 LTR sequence from nucleotide −138 to +80 (Sca1-HindIII) upstream of the luciferase gene in the pGL3 Basic Vector (a promoterless luciferase expression vector from Promega catalogue # E1751) with the gene for blasticidine resistance cloned in. The reporter cells are made by electroporating C8166 cells with pGL3 Basic LTR/TAR and selecting positive clones with blasticidine. Clone C8166-LTRIuc #A8-F5-G7 is selected by 3 consecutive rounds of limiting dilution under blasticidine selection. Cultures are maintained in complete media (consisting of: Roswell Park Memorial Institute medium (RPMI) 1640+10% FBS+10^−5 M β-mercaptoethanol+10 μg/ml gentamycin) with 5 μg/ml blasticidine, however, blasticidine selection is removed from the cells before performing the viral replication assay.
Luciferase Assay Protocol
Serial dilutions of HIV-1 inhibitor compounds are prepared in complete media from 10 mM DMSO stock solutions. Eleven serial dilutions of 2.5× are made at 8× desired final concentration in a 1 mL deep well titer plate (96 wells). The 12th well contains complete media with no inhibitor and serves as the positive control. All samples contain the same concentration of DMSO (≦0.1% DMSO). A 25 μL aliquot of inhibitor is added, to triplicate wells, of a 96 well tissue culture treated clear view black microtiter plate (Corning Costar catalogue # 3904). The total volume per well is 200 μL of media containing cells and inhibitor. The last row is reserved for uninfected C8166 LTRluc cells to serve as the background blank control and the first row is media alone.
C8166 LTRluc cells are counted and placed in a minimal volume of complete RPMI 1640 in a tissue culture flask (ex. 30×10^6 cells in 10 mL media/25 cm^2 flask). Cells are infected with HIV-1 or virus with variant integrase generated as described below at a […] (moi) of 0.005. Cells are incubated for 1.5 hours at 37° C. on a rotating rack in a 5% CO2 incubator and re-suspended in complete RPMI to give a final concentration of 25,000-cells/175 μL. 175 μL of cell mix is added to wells of a 96 well microtiter plate containing 25 μL 8× inhibitors. 25,000 uninfected C8166-LTRluc cells/well in 200 μL complete RPMI are added to the last row for background control. Cells are incubated at 37° C. in 5% CO2 incubator for 3 days.
50 μL Steady Glo (luciferase substrate T1/2=5 hours Promega catalogue # E2520) is added to each well of the 96 well plate. The relative light units (RLU) of luciferase is determined using the LUMIstar Galaxy luminometer (BMG LabTechnologies). Plates are read from the bottom for 2 seconds per well with a gain of 240.
The level of inhibition (% inhibition) of each well containing inhibitor is calculated as follows: […]
The calculated % inhibition values are used to determine EC50, slope factor (n) and maximum inhibition (Imax) by the non-linear regression routine NLIN procedure of SAS using the following equation: […]
`Cc1nc(C(=O)NCC2CCCC2)c(C)c(-c2ccc(Cl)cc2)c1[C@H](OC(C)(C)C)C(=O)O` [compound 1208] was tested, and the pEC50 was 8.05. `Cc1nc(NC(=O)C(C)(C)C)c(C)c(-c2ccc3c(c2Cl)NCCO3)c1[C@H](OC(C)(C)C)C(=O)O` [compound 1242] gave a pEC50 of 6.66. With `Cc1nc(C(=O)NCC2CCCC2)c(C)c(-c2ccc3c(c2Cl)NCCO3)c1[C@H](OC(C)(C)C)C(=O)O` [compound 1256] the pEC50 was 8.09. For `Cc1nc(C(=O)Nc2ccc3ncccc3c2)c(C)c(-c2ccc(Cl)cc2)c1[C@H](OC(C)(C)C)C(=O)O` [compound 1275], the pEC50 was 8.35. `Cc1nc(C(=O)Nc2nc3c(s2)CCC3)c(C)c(-c2ccc(Cl)cc2)c1[C@H](OC(C)(C)C)C(=O)O` [compound 1276] gave a pEC50 of 7.17. Work on `Cc1nc(C(=O)Nc2ccc(C(F)(F)F)nc2)c(C)c(-c2ccc(Cl)cc2)c1[C@H](OC(C)(C)C)C(=O)O` [compound 1280] yielded a pEC50 of 7.66. `Cc1nc(C(=O)Nc2ccc(C(N)=O)nc2)c(C)c(-c2ccc(Cl)cc2)c1[C@H](OC(C)(C)C)C(=O)O` [compound 1283] showed a pEC50 of 6.85. `Cc1nc(C(=O)Nc2ccc(F)cn2)c(C)c(-c2ccc3c(c2)NCCO3)c1[C@H](OC(C)(C)C)C(=O)O` [compound 1290] showed a pEC50 of 7.96. `Cc1nc(C(=O)NCC2CCCC2)c(C)c(-c2ccc3c(c2)NCCO3)c1[C@H](OC(C)(C)C)C(=O)O` [compound 1293] was tested, and the pEC50 was 7.62. Work on `Cc1nc(C(=O)NCC2CCC2)c(C)c(-c2ccc(Cl)cc2)c1[C@H](OC(C)(C)C)C(=O)O` [compound 1307] yielded a pEC50 of 7.77. Compound `Cc1nc2ccc(NC(=O)c3nc(C)c([C@H](OC(C)(C)C)C(=O)O)c(-c4ccc(Cl)cc4)c3C)cc2s1` [compound 1311] has a pEC50 of 7.59. `Cc1nc(C(=O)Nc2nnc(C3CC3)s2)c(C)c(-c2ccc(Cl)cc2)c1[C@H](OC(C)(C)C)C(=O)O` [compound 1316] showed a pEC50 of 7.33. `Cc1nc(-c2nc3ccc(Cl)cc3n2C)c(C)c(-c2ccc(Cl)cc2)c1[C@H](OC(C)(C)C)C(=O)O` [compound 1437] was tested, and the pEC50 was 9.12. `Cc1nc(-c2cn3cc(Cl)ccc3n2)c(C)c(-c2ccc(Cl)cc2)c1[C@H](OC(C)(C)C)C(=O)O` [compound 1438] was tested, and the pEC50 was 9.03. Compound `COc1ccc2nc(-c3nc(C)c([C@H](OC(C)(C)C)C(=O)O)c(-c4ccc(Cl)cc4)c3C)n(C)c2c1` [compound 1439] has a pEC50 of 8.40. With `CCn1c(-c2nc(C)c([C@H](OC(C)(C)C)C(=O)O)c(-c3ccc(Cl)cc3)c2C)nc2ccccc21` [compound 1440] the pEC50 was 8.62. `COc1cc2nc(-c3nc(C)c([C@H](OC(C)(C)C)C(=O)O)c(-c4ccc(Cl)cc4)c3C)n(C)c2cc1Cl` [compound 1441] showed a pEC50 of 8.31. With `Cc1nc(C(=O)NCc2ccnc3ccccc23)c(C)c(-c2ccc(Cl)cc2)c1[C@H](OC(C)(C)C)C(=O)O` [compound 1442] the pEC50 was 7.80. Compound `[2H]C1([2H])C([2H])([2H])C([2H])([2H])C([2H])(NC(=O)c2nc(C)c([C@H](OC(C)(C)C)C(=O)O)c(-c3ccc(Cl)cc3)c2C)C([2H])([2H])C1([2H])[2H]` [compound 1443] has a pEC50 of 8.15. Work on `Cc1nc(C(=O)NC2CCC3(CC2)CC3)c(C)c(-c2ccc(Cl)cc2)c1[C@H](OC(C)(C)C)C(=O)O` [compound 1444] yielded a pEC50 of 8.04. Compound `Cc1nc(-c2nc3cc(Cl)ccc3[nH]2)c(C)c(-c2ccc(Cl)cc2F)c1[C@H](OC(C)(C)C)C(=O)O` [compound 1445] has a pEC50 of 8.72. In the case of `Cc1nc(-c2nc3cc(Cl)ccc3[nH]2)c(C)c(-c2ccccc2Cl)c1[C@H](OC(C)(C)C)C(=O)O` [compound 1446], the pEC50 was 8.72. Compound `Cc1nc(-c2nc3ccc(Cl)cc3[nH]2)c(C)c(-c2ccc(Br)cc2)c1[C@H](OC(C)(C)C)C(=O)O` [compound 1447] has a pEC50 of 9.42. Work on `Cc1nc(-c2nc3ccccc3n2C)c(C)c(-c2ccc(Br)cc2)c1[C@H](OC(C)(C)C)C(=O)O` [compound 1448] yielded a pEC50 of 8.85. With `Cc1nc(-c2nc3ccccc3n2CC2CC2)c(C)c(-c2ccc(Cl)cc2)c1[C@H](OC(C)(C)C)C(=O)O` [compound 1449] the pEC50 was 8.74. Compound `Cc1nc(-c2nc3ccccc3n2C2CC2)c(C)c(-c2ccc(Cl)cc2)c1[C@H](OC(C)(C)C)C(=O)O` [compound 1450] has a pEC50 of 8.11. With `Cc1nc(C(=O)NC2CCC(C)(C)CC2)c(C)c(-c2ccc(Cl)cc2F)c1[C@H](OC(C)(C)C)C(=O)O` [compound 1451] the pEC50 was 8.77. For `Cc1nc(C(=O)NC2CCC3(CC2)CC3)c(C)c(-c2ccc(Cl)cc2F)c1[C@H](OC(C)(C)C)C(=O)O` [compound 1452], the pEC50 was 8.24. `COc1cc(C(=O)Nc2nc(C)c([C@H](OC(C)(C)C)C(=O)O)c(-c3ccc(Cl)cc3F)c2C)nc2ccccc12` [compound 1453] gave a pEC50 of 8.68. Compound `Cc1nc(C(=O)N[C@H]2CC[C@H](C)CC2)c(C)c(-c2cccc(F)c2Cl)c1[C@H](OC(C)(C)C)C(=O)O` [compound 1454] has a pEC50 of 8.43. Compound `Cc1nc(C(=O)N[C@H]2CC[C@H](C)CC2)c(C)c(-c2ccccc2Cl)c1[C@H](OC(C)(C)C)C(=O)O` [compound 1455] has a pEC50 of 8.40. Work on `Cc1nc(C(=O)N[C@H]2CC[C@H](C)CC2)c(C)c(-c2ccc(Br)cc2)c1[C@H](OC(C)(C)C)C(=O)O` [compound 1456] yielded a pEC50 of 8.38. Compound `Cc1nc(C(=O)NC2CCC(C)(C)CC2)c(C)c(-c2ccc(Br)cc2)c1[C@H](OC(C)(C)C)C(=O)O` [compound 1457] has a pEC50 of 8.40. With `Cc1nc(C(=O)NC2CCC3(CC2)CC3)c(C)c(-c2ccc(Br)cc2)c1[C@H](OC(C)(C)C)C(=O)O` [compound 1458] the pEC50 was 8.16. In the case of `Cc1nc(C(=O)N[C@H]2CC[C@H](C)CC2)c(C)c(-c2ccc3c(c2)SCCO3)c1[C@H](OC(C)(C)C)C(=O)O` [compound 1459], the pEC50 was 8.40. `COc1cc(C(=O)Nc2nc(C)c([C@H](OC(C)(C)C)C(=O)O)c(-c3ccc(Cl)cc3)c2C)nc2ccccc12` [compound 1461] showed a pEC50 of 8.60. `COc1cc(Cl)ccc1C(=O)Nc1nc(C)c([C@H](OC(C)(C)C)C(=O)O)c(-c2ccc(Cl)cc2)c1C` [compound 1462] was tested, and the pEC50 was 8.92. `Cc1nc(NC(=O)c2oc3ccccc3c2C)c(C)c(-c2ccc(Cl)cc2)c1[C@H](OC(C)(C)C)C(=O)O` [compound 1463] gave a pEC50 of 8.68. `Cc1nc(NC(=O)[C@H]2CC[C@H](C)CC2)c(C)c(-c2ccc(Cl)cc2)c1[C@H](OC(C)(C)C)C(=O)O` [compound 1464] gave a pEC50 of 8.21. Compound `Cc1ccc(C(F)(F)F)c(C(=O)Nc2nc(C)c([C@H](OC(C)(C)C)C(=O)O)c(-c3ccc(Cl)cc3)c2C)c1` [compound 1465] has a pEC50 of 7.96. Work on `Cc1nc(NC(=O)c2ccc(Cl)c(F)c2)c(C)c(-c2ccc(Cl)cc2)c1[C@H](OC(C)(C)C)C(=O)O` [compound 1466] yielded a pEC50 of 8.31. Compound `COc1nc(C)ccc1C(=O)Nc1nc(C)c([C@H](OC(C)(C)C)C(=O)O)c(-c2ccc(Cl)cc2)c1C` [compound 1467] has a pEC50 of 8.37. `Cc1nc(-c2nc3ccc(Cl)cn3c2C)c(C)c(-c2ccc(Cl)cc2)c1[C@H](OC(C)(C)C)C(=O)O` [compound 1469] gave a pEC50 of 9.21. `Cc1nc(C(=O)N2Cc3ccccc3C2)c(C)c(-c2ccc(Cl)cc2)c1[C@H](OC(C)(C)C)C(=O)O` [compound 1471] was tested, and the pEC50 was 8.62. Work on `COCc1nc(-c2ccc(C)c(C)c2)c(C)c(-c2ccc(Cl)cc2)c1[C@H](OC(C)(C)C)C(=O)O` [compound 2003] yielded a pEC50 of 7.77. `Cc1noc(C)c1-c1ccc(-c2nc(C)c([C@H](OC(C)(C)C)C(=O)O)c(-c3ccc(Cl)cc3)c2C#N)cc1` [compound 2005] was tested, and the pEC50 was 7.72. For `CCC(C)(C)O[C@H](C(=O)O)c1c(C)nc(C(=O)N[C@H]2CC[C@H](C)CC2)c(C)c1-c1ccc(Cl)cc1` [compound 3005], the pEC50 was 8.03. Compound `Cc1nc(C(=O)N[C@H]2CC[C@H](C)CC2)c(C)c(-c2ccc(Cl)cc2)c1[C@H](OC1(C)CCC1)C(=O)O` [compound 3009] has a pEC50 of 7.62. Compound `Cc1c(-c2ccc3c(c2)CCCO3)c([C@H](OC(C)(C)C)C(=O)O)c(C)n2cc(CC(C)(C)C)nc12` [compound 4002] has a pEC50 of 7.14. `COC(=O)c1cnn2c(C)c([C@H](OC(C)(C)C)C(=O)O)c(-c3ccc4c(c3)CCCO4)c(C)c12` [compound 6001] was tested, and the pEC50 was 7.05.
